Results: patent US12576057B2, “Antibacterial and biofilm formation-inhibiting composition containing myristoleic acid as active ingredient” (RESEARCH COOPERATION FOUNDATION OF YEUNGNAM UNIVERSITY, priority 2020, dated 2026)
In brackets after ≈: the same amount, converted by molar mass. Where two headings read alike, the source gives them in different places.

Legend:
C. acnes ATCC 6919 [1] = experiment: Crystal violet biofilm formation assay, C. acnes ATCC 6919; type: cell-based, Cutibacterium acnes; conditions: for inhibition at 1 µg/mL / inhibition at 20 µg/mL: Cutibacterium acnes, ATCC6919, 96 h; for inhibition at 1 µg/mL: 1 μg/ml, 96 h, 96-well polystyrene plate, read-out: inhibitory effect on biofilm formation; for inhibition at 20 µg/mL / change in biofilm formation: 20 μg/ml; for inhibition at 20 µg/mL: 96 h culture in RCM, 96-well plate; for change in biofilm formation: 96 h culture
Description: 3. Crystal Violet Film Assay
Crystal violet assay was performed by the previously reported method (Lee et al., 2017b) to quantify biofilm formation.
To quantify the biofilm, planktonic growth was eliminated, the plate was washed three times with distilled water, and the biofilm attached to the well was stained with 0.1% crystal violet for 20 minutes. Thereafter, the plate was washed three times with sterile distilled water, and crystal violet was extracted using 95% ethanol, absorbance was measured at 570 nm using Multiskan EX microplate reader (Thermo Fisher Scientific, Waltham, MA), and the result was shown as an average value of at least 12 replicate wells.
Percentage for inhibition rate represents relative biofilm formation (100×biofilm formation with chemical/biofilm formation of untreated control).

S. aureus ATCC 6538 = experiment: Biofilm formation of S. aureus ATCC 6538; type: cell-based, Staphylococcus aureus
Description: (§1) The antibacterial and anti-biofilm activity of myristoleic acid against five Staphylococcus aureus strains was identified, including two methicillin-sensitive S. aureus strains (MSSA; ATCC 25923 and ATCC 6538), two methicillin-resistant S. aureus strains (MRSA, MW2, and ATCC 33591), and S. epidermidis strains.

C. acnes ATCC 6919 [2] = experiment: Rapid killing (time-kill) experiment; type: cell-based, Cutibacterium acnes; conditions: 100 μg/ml
Description: 4. Analysis of Rapid Killing of Acne Bacteria Using Fatty Acids To determine the killing time by fatty acids, a time-kill experiment was performed. Briefly, cultures of C. acnes ATCC 6919 grown in RCM broth (BD Difco™, Fisher Scientific, Pittsburgh, USA) at 37° C. under anaerobic conditions for 96 hours were diluted in a ratio of 1:50 with fresh RCM medium. The samples were treated with myristoleic acid (50 and 100 μg/ml) or lauric acid (50 and 100 μg/ml) and cultured at 37° C. under anaerobic conditions while stirring. At each time point, aliquots of treated cells were collected, and after performing appropriate dilutions, cells were smeared on RCM agar plates and incubated at 37° C. for 96 hours, followed by enumeration of CFUs, wherein each experiment was repeated.

C. acnes ATCC 6919 [3] = experiment: Hydrophobicity analysis: microbial adherence to hydrocarbon (MATH); type: cell-based, Cutibacterium acnes; conditions: for change of cell hydrophobicity: 10 and 20 μg/ml fatty acids, 96 h
Description: MATH analysis (Rosenberg et al., 1980) was performed to identify the effect of fatty acids on the attachability of C. acnes to hydrocarbons (toluene) and the cell surface hydrophobicity of C. acnes.
C. acnes were grown without fatty acids for 96 hours under anaerobic conditions at 37° C.
The OD values of all treated and untreated cultures were adjusted to OD 0.5±0.05, and an equal volume of toluene was added to 3 ml of the cell suspension, followed by stirring for 60 seconds.
After stirring, incubation of an aqueous solution was performed overnight at room temperature to completely remove the trace solvent. OD600 in the aqueous solution was observed and cell surface hydrophobicity (CSH) was evaluated by hydrophobicity index (HI) using the following formula. (HI=[1−(OD600 after vortexing/OD600 before vortexing)]×100) (Mattos-Guaraldi et al., 1999). 8. Identification of Anti-Viral Effect and Cytotoxicity of Myristoleic Acid in Nematode Model

C. acnes [4] = conditions: after 72 hours, previous report; cited from earlier work
C. acnes ATCC 6919 [5] = experiment: Quantification of extracellular polymeric substance (EPS); type: cell-based, Cutibacterium acnes; conditions: 10 μg/ml, 96 h culture
Description: 6. Quantification of Extracellular Polymeric Substance (EPS)
For EPS quantification, C. acnes treated with control and myristoleic acid was cultured at 37° C. for 96 hours. After culture, the culture was centrifuged at 8,228×g for 10 minutes, and the supernatant was separated.
The cell pellet was washed with sterile PBS to remove the culture supernatant which is free of residual cells. 15 ml of an isotonic solution (10 mM Tris/HCl, pH 8.0, 10 mM EDTA, 2.5% NaCl) was added to the cell pellet, and the mixed wells were culture at 4° C. overnight.
After overnight culture, the cell suspension was shaken to be mixed for 5 minutes, followed by centrifugation at 8,228×g for 10 minutes. The supernatant containing EPS bound with the cells was separated from the cells. Cold ethanol was added to the supernatant in a ratio of 1:3 and left at −20° C. overnight.
After collecting the precipitated EPS by centrifugation at 4° C., 18,514×g for 30 minutes, the pellet was washed with 70% ethanol and dried. The dried EPS was weighed, and inhibition of EPS production by fatty acids was calculated by the following formula (Sivasankar et al., 2016). ([Control wt−Treated wt/Control wt]×100) 7. Hydrophobicity Analysis: Microbial Adherence to Hydrocarbon (MATH)

C. acnes ATCC 6919 [6] = experiment: Planktonic cell growth and MIC identification; type: cell-based, Cutibacterium acnes; conditions: for MIC: after 96 hours of culture
Description: 2. Measurement of Planktonic Cell Growth and MIC Identification In order to identify the effect of fatty acids on the planktonic growth of C. acnes, a culture cultured for 96 hours in a 96-well plate was re-transplanted after undergoing dilution in a ratio of 1:50 and then treated with fatty acids of different concentrations. Plates were cultured under anaerobic condition at 37° C. and maintained using an anaerobic pouch (Fisher Scientific, Pittsburgh, USA). After 96 hours of culture, cell turbidity was checked at 600 nm using Optizen 2120UV spectrophotometer ([…] Co. Ltd., Daejeon, Korea).

uninfected C. elegans = experiment: Chemical toxicity in uninfected C. elegans; type: in vivo; conditions: increased to 500 μg/ml for 5 days, uninfected nematodes
Description: The toxicity of myristoleic acid was identified in […].
[…] was treated with myristoleic acid with various doses, and survival was checked every day for 5 consecutive days.
In addition, in order to identify the chemical toxicity of myristoleic acid, uninfected nematodes were exposed to different concentrations of myristoleic acid.

C. acnes [7] = experiment: Scanning electron microscopy of biofilm / EPS; type: cell-based, Cutibacterium acnes; conditions: 10 μg/ml
Description: 5. Scanning Electron Microscopy
Production of extracellular polymeric substance (EPS) was detected by electron microscopy (SEM) by the previously reported method (Lee et al., 2011).
Briefly, C. acnes cells were inoculated in 96-well plates under conditions with or without fatty acids, and a nylon filter (0.4×0.4 mm square) was added to each well. Biofilms were grown on the nylon filters by culturing together for 96 hours without stirring under anaerobic conditions at 37° C.
Then, the biofilm cells on the piece of nylon filter were immobilized with 2.5% glutaraldehyde and 2% formaldehyde for 24 hours and sequentially immobilized with osmium tetroxide, followed by dehydration with ethanol series (50, 70, 80, 90, 95 and 100%) and isoamyl acetate.
After critical point drying, the cells on the filter were stopper-coated with to palladium/gold, and observed under an S-4100 scanning electron microscope (Hitachi, Tokyo, Japan) at a magnification of ×1000 to ×10,000 using an acceleration voltage of 15 kV.

[8] = tested on: C. elegans infected with C. acnes ATCC 6919; experiment: C. elegans killing assay with C. acnes infection; type: in vivo; conditions: 10 μg/ml, 4 days; 20% survived without treatment
Description: C. elegans killing assay was performed with a slight modification of the previously reported method (Beceiro et al., 2014). Briefly, assays were performed in 96-well plates.
Young adult nematodes (20-30) [fer-15(b26);fem-1(hc17)] were transferred to each well contained in an M9 solution. The untreated control and fatty acid-treated C. acnes cells were each added to separate wells containing 20 to 30 nematodes and incubated at 25° C.
Nematodes solely exposed to E. coli OP50 at CFU of 1×10^6 cells/ml were used as a control.
Viability was identified by exposing to LED or UV LED light for 10 to 30 seconds using the iRiS™ Digital Cell Imaging System (Logos BioSystems, South Korea) by the previously reported method (Rajasekharan et al., 2018). The experiments were repeated three times.

[9] = tested on: S. aureus ATCC 6538, S. aureus ATCC 25923, MRSA MW2, MRSA ATCC 33591, S. epidermidis ATCC 14990; experiment: Biofilm formation of five Staphylococcus strains; type: cell-based, Staphylococcus aureus, Staphylococcus epidermidis
Description: as §1

Staphylococcus strains = experiment: MIC against Staphylococcus strains; type: cell-based, Staphylococcus aureus
Description: as §1

[10] = Cutibacterium acnes, ATCC6919, 96 h, read-out: MIC

| Structure (SMILES) | change of cell hydrophobicity (C. acnes ATCC 6919 [3]) | EPS production (C. acnes ATCC 6919 [5]) | inhibition at 20 µg/mL (C. acnes ATCC 6919 [1]) [%] | further results |
| --- | --- | --- | --- | --- |
| CCCCCCCCCCCC(=O)O [lauric acid, reference compound] | reduced cell hydrophobicity the most | significant reduction in EPS production | – | inhibition at 1 µg/mL (C. acnes ATCC 6919 [1]): ≥ 80%; anti-biofilm activity (S. aureus ATCC 6538): weak anti-biofilm activity; killing of C. acnes cells (C. acnes ATCC 6919 [2]): did not effectively kill; MIC (C. acnes [4]): 60 µg/mL (≈ 300 µM) |
| CCCCCCCCCC(=O)O [decanoic acid] | – | no significant changes | > 60 | MIC (C. acnes ATCC 6919 [6]; [10]): 20 to 200 µg/mL (≈ 116 to 1160 µM) |
| CCCCCCCC/C=C\CCCCCCCCCCCC(=O)O [erucic acid] | – | – | > 60 | – |
| CCCCCC/C=C\CCCCCCCC(=O)O [cis-9-hexadecenoic acid, cis-9 hexadecenoic acid] | a little change in hydrophobicity | no significant changes | – | change in biofilm formation (C. acnes ATCC 6919 [1]): very subtle changes in biofilm formation |
| CC/C=C\C/C=C\C/C=C\CCCCCCCC(=O)O [linolenic acid] | – | – | > 60 | – |
| CCCCCCCCCCCCCCCCCCCCCCC(=O)O [trichoic acid, tricosanoic acid] | a little change in hydrophobicity | no significant changes | > 60 | – |
| CCCCCCCCCCCCCCCCCC(=O)O [stearic acid] | a little change in hydrophobicity | no significant changes | > 60 | – |
| CCCC/C=C\CCCCCCCC(=O)O [myristoleic acid] | reduced cell hydrophobicity the most | significant reduction in EPS production | – | C. acnes biofilm formation (C. acnes ATCC 6919 [1]; <10 μg/ml): significantly inhibited; inhibition at 1 µg/mL (C. acnes ATCC 6919 [1]): ≥ 80%; C. acnes cells killed (C. acnes ATCC 6919 [2]; in 1 hour): ≥ 99.999%; hydrophobicity index (cells made hydrophilic) (C. acnes ATCC 6919 [3]; 10 μg/ml): > 20%; dose-dependent effect on hydrophobicity (C. acnes ATCC 6919 [3]; 5, 10, 15, or 20 μg/ml): clear-cut decrease in hydrophobicity in a dose-dependent manner; toxicity to C. elegans (uninfected C. elegans): did not show toxicity; MIC of myristoleic acid relative to lauric acid (times lower) (C. acnes ATCC 6919 [6]; 20 μg/ml vs 100 μg/ml): 5 times; MIC (C. acnes ATCC 6919 [6]; [10]): 20 to 200 µg/mL (≈ 88.4 to 884 µM); MIC (C. acnes ATCC 6919 [6]): 20 µg/mL (≈ 88.4 µM); planktonic cell growth (C. acnes ATCC 6919 [6]; increased to 10 μg/ml): did not reduce planktonic cell growth; EPS production by SEM analysis (C. acnes [7]): reduction in EPS production; survival of C. elegans infected with C. acnes [8]: 70%; anti-biofilm activity ([9]; 5 Staphylococcus strains): strong anti-biofilm activity; inhibition at 50 µg/mL ([9]; ALL5, 50 μg/ml, all 5 strains, read-out: biofilm formation inhibitory effect): > 90%; MIC (Staphylococcus strains): 150 µg/mL (≈ 663 µM) |
| CCCCC/C=C\C/C=C\C/C=C\C/C=C\CCCC(=O)O [arachidonic acid] | – | – | > 60 | – |
| CCCCCCCCCCC(=O)O [undecanoic acid] | – | significant reduction in EPS production | > 60 | MIC (C. acnes ATCC 6919 [6]; [10]): 20 to 200 µg/mL (≈ 107 to 1070 µM) |
| CCCCCCCCCCCCCC(=O)O [myristic acid] | – | – | > 60 | – |
| CCCCCCCCCCCCCCCCC(=O)O [heptadecanoic acid] | a little change in hydrophobicity | – | > 60 | – |
| CCCCCCC(=O)O [heptanoic acid] | – | no significant changes | – | change in biofilm formation (C. acnes ATCC 6919 [1]): very subtle changes in biofilm formation |
| CCCCCCCC/C=C\CCCCCCCC(=O)O [oleic acid] | – | – | > 60 | – |
| CCCCC/C=C\C/C=C\CCCCCCCC(=O)O [linoleic acid] | reduced cell hydrophobicity the most | – | > 60 | – |
| CCCCC(=O)O [valeric acid, pentanoic acid] | – | – | – | change in biofilm formation (C. acnes ATCC 6919 [1]): very subtle changes in biofilm formation |
| CCCCCCCCC(=O)O [nonanoic acid] | – | – | > 60 | – |
| CCCCCCCCCCCCCCCC(=O)O [palmitic acid] | – | – | > 60 | – |
